According to patent US12558428B2, “Heterobifunctional compounds and their use in treating disease” (Halda Therapeutics OpCo, Inc., priority 2024, dated 2026):
Read-outs that look alike come from different tables or passages of the source.

Assays:
Type in all cases: cell-based
[1] = test system: T-Rex 293 cells having increased expression of estrogen receptor alpha protein; assay: Cellular growth inhibition assay, T-Rex 293 cells, (+) doxycycline; conditions: T-REx-293, 72 h, 72 hours
Outline: (§1)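 Growth of a doxycycline-inducible ERα T-Rex 293 clone, induced or not with 3 ng/mL doxycycline, was followed for 72 h with test compound in hormone-depleted medium. CellTiter-Glo luminescence gave GI50.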

[2] = test system: T-Rex 293 cells lacking increased expression of estrogen receptor alpha protein; assay: Cellular growth inhibition assay, T-Rex 293 cells, (−) doxycycline; conditions: T-REx-293, 72 h, 72 hours
Outline: as §1

[3] = test system: MCF7 cells (ATCC #HTB-22); assay: Cellular growth inhibition assay, MCF7 cells purchased from ATCC; conditions: Homo sapiens, MCF7, 144 h, Table 8-A; MCF7 cells purchased from ATCC; six days; CellTiter-Glo; read-out: GI50
Outline: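 GI50 values come from a four-parameter fit of CellTiter-Glo 2.0 luminescence after six days of compound exposure at 37° C. Seeding density depended on the source: 225 cells/well for ECACC MCF7, 1,500 for ATCC. Medium was RPMI 1640 with 10% FBS and 0.2 U/ml insulin.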

[4] = T-Rex 293 cells with doxycycline-induced ERα expression, CellTiter-Glo 2.0, read-out: (+) Dox TRex ERa (GI50)
[5] = T-Rex 293 cells without doxycycline, CellTiter-Glo 2.0, read-out: (−) Dox TRex ERa (GI50)

SMILES	GI50 [3] [nM]	GI50 [1, 4] [nM]	GI50 [2, 5] [nM]	GI50 ([1]; Table 7-A, T-Rex 293 cells with doxycycline (increased ERα expression), CellTiter-Glo, read-out: (+) Dox GI50) [nM]	GI50 ([2]; Table 7-A, T-Rex 293 cells without doxycycline (lacking increased ERα expression), CellTiter-Glo, read-out: (−) Dox GI50) [nM]
Cc1sc2c(c1C)C(c1ccc(C#CC3CC4(CCN(CCOc5ccc(C(=O)c6c(-c7ccc(O)cc7)sc7cc(O)ccc67)cc5)CC4)C3)cc1)=N[C@@H](Cc1ncco1)c1nnc(C)n1-2 [I-20, (S)-(6-hydroxy-2-(4-hydroxyphenyl)benzo[b]thiophen-3-yl)(4-(2-(2-((4-(2,3,9-trimethyl-6-(oxazol-2-ylmethyl)-6H-thieno[3,2-f][1,2,4]triazolo[4,3-a][1,4]diazepin-4-yl)phenyl)ethynyl)-7-azaspiro[3.5]nonan-7-yl)ethoxy)phenyl) methanone]	< 50	< 50	< 50	–	–
Cn1cc(-c2cc(C(C)(C)O)ccc2Oc2ccc(N3CC(CC4CCN(c5ccc(C(=O)c6c(-c7ccc(O)cc7)sc7cc(O)ccc67)cc5)CC4)C3)cc2)c2cc[nH]c2c1=O [I-22, 4-(2-(4-(3-((1-(4-(6-hydroxy-2-(4-hydroxyphenyl)benzo[b]thiophene-3-carbonyl)phenyl)piperidin-4-yl)methyl)azetidin-1-yl)phenoxy)-5-(2-hydroxy-propan-2-yl)phenyl)-6-methyl-1,6-dihydro-7H-pyrrolo[2,3-c]pyridin-7-one]	< 50	< 50	50 to 500	–	–
Cn1cc(-c2cc(C(C)(C)O)ccc2Oc2ccc(CC3CC4(CCN(CCOc5ccc(C(=O)c6c(-c7ccc(O)cc7)sc7cc(O)ccc67)cc5)CC4)C3)cc2)c2cc[nH]c2c1=O [I-24, 4-(2-(4-((7-(2-(4-(6-hydroxy-2-(4-hydroxyphenyl)benzo[b]thiophene-3-carbonyl)phenoxy)ethyl)-7-azaspiro[3.5]nonan-2-yl)methyl)phenoxy) -5-(2-hydroxypropan-2-yl)phenyl)-6-methyl-1,6-dihydro-7H-pyrrolo[2,3-c]pyridin-7-one]	< 50	50 to 500	50 to 500	–	–
Cc1sc2c(c1C)C(c1ccc(Cl)cc1)=N[C@@H](CC(=O)NCCCCOCCOc1ccc(C(=O)c3c(-c4ccc(Br)cc4)sc4cc(O)ccc34)cc1)c1nnc(C)n1-2 [I-28, (S)—N-(4-(2-(4-(2-(4-bromophenyl)-6-hydroxybenzo[b]thiophene-3-carbonyl)phenoxy)ethoxy)butyl)-2-(4-(4-chlorophenyl)-2,3,9-trimethyl-6H-thieno[3,2-f][1,2,4]triazolo[4,3-a][1,4]diazepin-6-yl)acetamide]	50 to 500	50 to 500	500 to 2500	–	–
Cc1sc2c(c1C)C(c1ccc(CC3CC4(CCN(CCOc5ccc(C(=O)c6c(-c7ccc(O)cc7)sc7cc(O)ccc67)cc5)CC4)C3)cc1)=N[C@@H](Cc1ncco1)c1nnc(C)n1-2 [I-30, (S)-(6-hydroxy-2-(4-hydroxyphenyl)benzo[b]thiophen-3-yl)(4-(2-(2-(4-(2,3,9-trimethyl-6-(oxazol-2-ylmethyl)-6H-thieno[3,2-f][1,2,4]triazolo[4,3-a][1,4]diazepin-4-yl)benzyl)-7-azaspiro[3.5]nonan-7-yl)ethoxy)phenyl)methanone]	< 50	< 50	< 50	–	–
Cn1cc(-c2cc(C(C)(C)O)ccc2Oc2ccc(C#CC3CC4(CCN(CCOc5ccc(C(=O)c6c(-c7ccc(O)cc7)sc7cc(O)ccc67)cc5)CC4)C3)cc2)c2cc[nH]c2c1=O [I-31, 4-(2-(4-((7-(2-(4-(6-hydroxy-2-(4-hydroxyphenyl)benzo [b]thiophene-3-carbonyl)phenoxy)ethyl)-7-azaspiro[3.5]nonan-2-yl)ethynyl)phenoxy)-5-(2-hydroxypropan-2-yl)phenyl)-6-methyl-1,6-dihydro-7H-pyrrolo[2,3-c]pyridin-7-one]	< 50	< 50	50 to 500	–	–
Cc1sc2c(c1C)C(c1ccc(OCCOCCCN3CC[C@H](Oc4ccc(C5=C(c6ccc(Cl)cc6Cl)CCCc6cc(C(=O)O)ccc65)cc4)C3)cc1)=N[C@@H](C)c1nnc(C)n1-2 [I-32, 8-(2,4-dichlorophenyl)-9-(4-(((S)-1-(3-(2-(4-((S)-2,3,6,9-tetramethyl-6H-thieno[3,2-f][1,2,4]triazolo[4,3-a][1,4]diazepin-4-yl)phenoxy)ethoxy)propyl)pyrrolidin-3-yl)oxy)phenyl)-6,7-dihydro-5H-benzo[7]annulene-3-carboxylic acid]	50 to 500	< 50	500 to 2500	–	–

More lines, main results first:

GI50 [3] [nM]	SMILES	GI50 [1, 4] [nM]	GI50 [2, 5] [nM]	GI50 ([1]; Table 7-A, T-Rex 293 cells with doxycycline (increased ERα expression), CellTiter-Glo, read-out: (+) Dox GI50) [nM]	GI50 ([2]; Table 7-A, T-Rex 293 cells without doxycycline (lacking increased ERα expression), CellTiter-Glo, read-out: (−) Dox GI50) [nM]
< 50	Cc1sc2c(c1C)C(c1ccc(OCCCCC3CCN(c4ccc(C(=O)c5c(-c6ccc(O)cc6)sc6cc(O)ccc56)cc4)CC3)cc1)=N[C@@H](Cc1ncco1)c1nnc(C)n1-2 [I-21, (S)-(6-hydroxy-2-(4-hydroxyphenyl)benzo[b]thiophen-3-yl)(4-(4-(4-(4-(2,3,9-trimethyl-6-(oxazol-2-ylmethyl)-6H-thieno[3,2-f][1,2,4]triazolo[4,3-a][1,4]diazepin-4-yl)phenoxy)butyl)piperidin-1-yl)phenyl)methanone]	< 50	50 to 500	–	–
50 to 500	Cc1sc2c(c1C)C(c1ccc(OCCOCCOc3cc(F)c([C@@H]4c5[nH]c6ccccc6c5C[C@@H](C)N4CC(C)(C)F)c(F)c3)cc1)=N[C@@H](C)c1nnc(C)n1-2 [I-23, (S)-4-(4-(2-(2-(3,5-difluoro-4-((1R,3R)-2-(2-fluoro-2-methylpropyl)-3-methyl-2,3,4,9-tetrahydro-1H-pyrido[3,4-b]indol-1-yl)phenoxy)ethoxy)ethoxy)phenyl)-2,3,6,9-tetramethyl-6H-thieno[3,2-f][1,2,4]triazolo[4,3-a][1,4]diazepine]	500 to 2500	500 to 2500	–	–
< 50	Cc1sc2c(c1C)C(c1ccc(OCCOCCOCCOc3cc(F)c([C@@H]4c5[nH]c6ccccc6c5C[C@@H](C)N4CC(C)(C)F)c(F)c3)cc1)=N[C@@H](C)c1nnc(C)n1-2 [I-25, (S)-4-(4-(2-(2-(2-(3,5-difluoro-4-((1R,3R)-2-(2-fluoro-2-methylpropyl)-3-methyl-2,3,4,9-tetrahydro-1H-pyrido[3,4-b]indol-1-yl)phenoxy)ethoxy)ethoxy)ethoxy)phenyl)-2,3,6,9-tetramethyl-6H-thieno[3,2-f][1,2,4]triazolo[4,3-a][1,4]diazepine]	50 to 500	50 to 500	–	–
50 to 500	Cc1sc2c(c1C)C(c1ccc(N3CCC(CN4CCN(c5ccc([C@@H]6c7ccc8n[nH]cc8c7C[C@@H](C)N6CC(F)(F)F)nc5)CC4)CC3)cc1)=N[C@@H](C)c1nnc(C)n1-2 [I-27, (S)-2,3,6,9-tetramethyl-4-(4-(4-((4-(6-((6S,8R)-8-methyl-7-(2,2,2-trifluoroethyl)-6,7,8,9-tetrahydro-2H-pyrazolo[4,3-f]isoquinolin-6-yl)pyridin-3-yl)piperazin-1-yl)methyl)piperidin-1-yl)phenyl)-6H-thieno[3,2-f][1,2,4]triazolo[4,3-a][1,4]diazepine]	< 50	500 to 2500	–	–
< 50	Cc1sc2c(c1C)C(c1ccc(C#CC3CC4(CCN(CCOc5ccc(C(=O)c6c(-c7ccc(O)cc7)sc7cc(O)ccc67)cc5)CC4)C3)cc1)=N[C@@H](C)c1nnc(C)n1-2 [I-29, (S)-(6-hydroxy-2-(4-hydroxyphenyl)benzo[b]thiophen-3-yl)(4-(2-(2-((4-(2,3,6,9-tetramethyl-6H-thieno[3,2-f][1,2,4]triazolo[4,3-a][1,4]diazepin-4-yl)phenyl)ethynyl)-7-azaspiro[3.5]nonan-7-yl)ethoxy)phenyl)methanone]	< 50	< 50	–	–
< 50	Cc1sc2c(c1C)C(c1ccc(OCCOCCOCCCN3CC(Nc4ccc([C@@H]5c6ccc7n[nH]cc7c6C[C@@H](C)N5CC(F)(F)F)nc4)C3)cc1)=N[C@@H](C)c1nnc(C)n1-2 [I-33, 6-((6S,8R)-8-methyl-7-(2,2,2-trifluoroethyl)-6,7,8,9-tetrahydro-2H-pyrazolo[4,3-f]isoquinolin-6-yl)-N-(1-(3-(2-(2-(4-((S)-2,3,6,9-tetramethyl-6H-thieno[3,2-f][1,2,4]triazolo[4,3-a][1,4]diazepin-4-yl)phenoxy)ethoxy)ethoxy)propyl)azetidin-3-yl)pyridin-3-amine]	< 50	> 2500	–	–
50 to 500	CCN(Cc1ccc(CCN2CC[C@@H](OCCOCCOc3ccc(C4=N[C@@H](C)c5nnc(C)n5-c5sc(C)c(C)c54)cc3)C2)cc1)c1cc(OC)ccc1C1CCc2cc(O)ccc2C1 (stereo partly drawn) [I-34a, (R)-6-(2-(ethyl(4-(2-((R)-3-(2-(2-(4-((S)-2,3,6,9-tetramethyl-6H-thieno[3,2-f][1,2,4]triazolo[4,3-a][1,4]diazepin-4-yl)phenoxy)ethoxy)ethoxy)pyrrolidin-1-yl)ethyl)benzyl)amino)-4-methoxyphenyl)-5,6,7,8-tetrahydronaphthalen-2-ol]	–	–	50 to 500	500 to 2500
